Assay results taken from publication PMC9564503, “Anabaenopeptins from Nostoc edaphicum CCNP1411” (International Journal of Environmental Research and Public …, 2022).
Numbered stars: 1 amine (or outer) side, 2 acyl side, 3 side chain; on linkers, the order of the positions; unused ones are H or OH. Bridge positions count the residues as written; N and C are the ends. Square brackets hold non-standard residues; d marks the D form. Peptide text beside a SMILES is read from it. hPhe = N[C@@H](CCc1ccccc1)C(=O)O; NMeN = CN[C@@H](CC(N)=O)C(=O)O; CO = O=C([*:1])[*:2]

Key:
trypsin = assay: Trypsin inhibition assay; assay type: biochemical; settings: class symbol in IC50 column
Description: The tests were performed in triplicates.
Table S2. Conditions and solvents used in the enzyme inhibition assays.
Enzyme Substrate Inhibitor bation time (min) ngth
Carboxypeptidase-A N-(4-methoxy-phenyl- Carboxypeptidase
(Sigma-Aldrich; azoformyl)-Phe-OH inhibitor from 5 min;
1.6 µM Montclair, CA, USA) (Sigma-Aldrich)
Elastase N-succinyl-Ala-Ala-Ala-p- Elastatinal
(Sigma-Aldrich) nitroanilide (Sigma-Aldrich) 20 min;
Thrombin N-p-tosyl-Gly-Pro-Lys-p- AEBSF
(Sigma-Aldrich) nitroanilide acetate salt (Sigma-Aldrich) 10 min;
Trypsin N-α-benzoyl-DL-arginine- Aprotinine
(Sigma-Aldrich) p-nitroanilide (Sigma-Aldrich) 15 min;
Figure S2. MRM chromatograms of anabaenopeptins produced by N. edaphicum CCNP1411.

CPA = tested on: CPA; set-up: method as in PMID 11000037, PMID 10340607, PMID 27641470; settings: ref [9],[23],[87]; read-out: IC50 against CPA; cited from earlier work

Molecule | Enzyme Inhibition TRY (activity class) (trypsin) | IC50 (CPA) [nM]
CC[C@H](C)[C@H](NC(=O)N[C@@H]1CCCCNC(=O)[C@H](Cc2ccccc2)NC(=O)[C@H](CC(N)=O)N(C)C(=O)[C@H](CCc2ccccc2)NC(=O)[C@H]([C@@H](C)CC)NC1=O)C(=O)O [AP SA6, [Lys–Leu*–Hph–MeAsn–Phe]CO–Leu*] ({Ile-CO}-[dK]I[hPhe][NMeN]F; lactam 1-C) | – (not active (inhibition below 10%)) | 
Tyr+CO[Lys+Ile+Hty+MeHty+Ile] [AP G] |  | 2
CC[C@H](C)[C@@H]1NC(=O)[C@H](NC(=O)N[C@H](C(=O)O)C(C)C)CCCCNC(=O)[C@H](Cc2ccccc2)NC(=O)[C@H](CC(N)=O)NC(=O)[C@H](CCc2ccccc2)NC1=O [AP806Ne, [Lys–Leu*–Hph–Asn–Phe]CO–Val] ({Val-CO}-[dK]I[hPhe]NF; lactam 1-C) | – (not active (inhibition below 10%)) | 
